One data set deals with Huh7 cells. The data set can be described thus: MTT cytotoxicity assay in Huh7 cells. The data set is classed as cell-based, human. As to conditions: 48 h, up to 12 µM Tpl, three independent experiments. On the procedure: (§1) MTT assay was used to identify the non-cytotoxic concentrations of Tpl. Cell viability was measured using MTT (3-(4,5_dimethylthaizol-2-yl)-2,5-diphenyltetrazolium bromide) assay. Approximately 10,000 cells were seeded per well in 96-well plates and kept overnight at 37 °C and 5% CO2 to achieve more than 80% confluency. Thereafter, cells were treated with various concentrations of Tpl for 48 h. After 48 h, media was removed, and cells were washed with PBS. MTT reagent was added at a final concentration of 1 mg/mL and kept for 4 h at 37 °C and 5% CO2. Thereafter, 100 µL of DMSO was added to dissolve the formazan crystals formed, and absorbance was determined at a wavelength of 570 nm with a background wavelength of 630 nm (Multiskan GO microplate spectrophotometer, Thermo Scientific, Waltham, MA, USA).
Background: Formazan colour is commonly taken as a measure of viable cells.

The test system of the next data set is HepG2 cells. The data set can be described thus: MTT cytotoxicity assay in HepG2 cells. It counts as cell-based, human. As to conditions: 48 h, up to 12 µM Tpl, three independent experiments. On the procedure: as §1

Residues, ends and D or L forms follow the SMILES beside them.

Consider `CC[C@H](C)[C@@H]1NC(=O)CNC(=O)[C@H](CCCNC(=N)N)NC(=O)[C@H](Cc2ccc(O)cc2)NC(=O)[C@@H]2CSSC[C@H](NC1=O)C(=O)N[C@@H](Cc1ccc(O)cc1)C(=O)N[C@@H](CCCNC(=N)N)C(=O)N[C@@H](CCCNC(=N)N)C(=O)N[C@H](C(=O)N[C@@H](CCCNC(=N)N)C(=O)NCC(=O)N[C@@H](CCCCN)C(N)=O)CSSC[C@H](NC(=O)[C@H](Cc1c[nH]c3ccccc13)NC(=O)[C@@H](N)CCCCN)C(=O)N[C@@H](Cc1ccccc1)C(=O)N[C@@H](CCCNC(=N)N)C(=O)N[C@@H](C(C)C)C(=O)N2` [Tpl] (HELM PEPTIDE1{K.W.C.F.R.V.C.Y.R.G.I.C.Y.R.R.C.R.G.K.[am]}$PEPTIDE1,PEPTIDE1,3:R3-16:R3|PEPTIDE1,PEPTIDE1,7:R3-12:R3$$$V2.0), for which the Cell viability result in the data set on Huh7 cells and in the data set on HepG2 cells was “more than 85%” in each case.
